Test results: patent US20230234938A1 (RHIZEN PHARMACEUTICALS AG, priority 2020, published 2023)
pIC50: −log10 of the molar value. Read-outs that look alike come from different tables or passages of the source.

Assays:
PARP2 = PARP2 (Homo sapiens, UniProt Q9UGN5); assay: PARP enzyme assay (PARP2); format: biochemical
Description: Step 2: Ribosylation Reaction

PAR in UWB 1.289 cells = assay: PAR inhibition in UWB 1.289 cells (western blot); format: cell-based, human; settings: for PAR % inhibition in UWB 1.289 @ 10 nM: 0.01 µM; for inhibition at 0.01 µM: Homo sapiens
Experimental: Example-3 UWB 1.289 cells were plated at a predetermined density in a 6-well plate in its respective media and plates were incubated at 37° C. and 5% CO2 overnight. After overnight incubation, the plates were treated with desired concentrations of the compound or DMSO and the plates were incubated at 37° C. and 5% CO2 as required for 24 hours. After completion of 24 hours incubation, total cell lysates were prepared from the treated samples. Lysates were analysed by western-blot analysis and probed with Human PAR specific monoclonal antibody or human specific beta-actin monoclonal antibody (loading control). Western-blot images were developed after exposing them to chemiluminescent substrate and images were captured on imaging system. Target specific bands and loading specific bands were measured using densitometric analysis. Densitometric values of target specific bands were normalized to loading control values. % inhibition of PAR was calculated relative to DMSO treated samples. Results: % inhibitions values are given below in Table-2: […]

PARP1 = PARP1 (Homo sapiens, UniProt P09874); assay: PARP enzyme assay (PARP1, chemiluminescent histone ribosylation); settings: for % inhibition 10 nM / % inhibition 100 nM: PARP enzyme assay; for % inhibition 10 nM: 10 nM compound; for % inhibition 100 nM: 100 nM compound; for IC50: read-out: IC50 (nM)-PARP1
Chain of PARP1 (P09874 whole entry, species assumed): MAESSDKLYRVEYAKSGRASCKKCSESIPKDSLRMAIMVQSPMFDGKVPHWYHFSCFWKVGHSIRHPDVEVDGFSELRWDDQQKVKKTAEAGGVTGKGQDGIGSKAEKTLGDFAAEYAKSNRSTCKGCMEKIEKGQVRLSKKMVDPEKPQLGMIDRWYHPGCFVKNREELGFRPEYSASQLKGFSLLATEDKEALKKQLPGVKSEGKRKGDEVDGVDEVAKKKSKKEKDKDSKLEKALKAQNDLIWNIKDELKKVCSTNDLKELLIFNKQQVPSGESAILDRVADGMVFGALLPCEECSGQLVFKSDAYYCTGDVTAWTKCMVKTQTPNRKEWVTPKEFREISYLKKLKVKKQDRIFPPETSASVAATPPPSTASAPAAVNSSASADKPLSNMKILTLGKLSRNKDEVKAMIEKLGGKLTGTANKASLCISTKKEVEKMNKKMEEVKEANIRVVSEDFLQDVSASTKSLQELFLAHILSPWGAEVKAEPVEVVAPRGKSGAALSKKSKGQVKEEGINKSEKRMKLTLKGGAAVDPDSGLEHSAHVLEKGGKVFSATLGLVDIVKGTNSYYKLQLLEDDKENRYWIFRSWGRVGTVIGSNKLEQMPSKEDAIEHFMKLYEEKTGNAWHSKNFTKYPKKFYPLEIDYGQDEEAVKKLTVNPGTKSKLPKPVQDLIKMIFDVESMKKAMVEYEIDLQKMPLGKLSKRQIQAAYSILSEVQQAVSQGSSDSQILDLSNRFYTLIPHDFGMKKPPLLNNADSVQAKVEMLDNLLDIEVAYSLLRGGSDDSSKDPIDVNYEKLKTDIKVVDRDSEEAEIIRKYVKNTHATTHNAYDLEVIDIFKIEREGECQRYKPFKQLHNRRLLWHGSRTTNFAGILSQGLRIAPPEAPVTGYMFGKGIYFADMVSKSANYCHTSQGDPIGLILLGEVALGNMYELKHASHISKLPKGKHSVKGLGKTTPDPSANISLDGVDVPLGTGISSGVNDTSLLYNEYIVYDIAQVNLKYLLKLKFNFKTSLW
Experimental: 1) Coat 25 µL of histone solution onto a 384-well plate as described below: • Dilute 5x histone mixture 1:5 with PBS. • Add 25 µL of diluted histone solution to each well and incubate at 4° C. overnight. • Wash the plate three times using 100 µL PBST buffer (1x PBS containing 0.05% Tween20) per well. • Tap plate onto clean paper towel to remove liquid. • Block the wells by adding 100 µL of Blocking buffer 3 to every well. Incubate at room temperature for 1 h 15 minutes. • Wash plate three times with 100 µL PBST buffer as described above. • Tap plate onto clean paper towel to remove liquid.
1) Preparation of 1X PARP Buffer: • Prepare 1x PARP buffer by adding 1 part of 10x PARP buffer to 9 parts distilled water (v/v). To prepare 500 µL of 1X PARP buffer, add 50 µL 10X PARP Assay buffer to 450 µL of H2O and mix well.
2) Preparation of the Ribosylation master mixture: • N wells x (1.25 µL 10x PARP buffer + 1.25 µL 10X PARP Assay mixture + 2.5 µL Activated DNA + 7.5 µL distilled water). Add 12.5 µL to every well.
3) Preparation of the inhibitor solution: • 10 mM stock solution of the inhibitor was prepared in DMSO. From 10 mM stock solution, 250X concentrations of the inhibitor were made in DMSO. • 250X DMSO concentrations of the inhibitor were further diluted to 10X concentrations in 1X kinase buffer. • 2.5 µL (10X concentrations) of kinase buffer containing inhibitor was added to each well. • For the “Positive Control” and “Blank”, add 2.5 µL of kinase buffer containing DMSO (4%) was added. • The final DMSO concentration in the well was 0.4 %.
4) Preparation of the enzyme solution: • Thaw PARP1 enzyme on ice. Upon first thaw, briefly spin tube containing enzyme to recover full content of the tube. Calculate the amount of PARP1 required for the assay and dilute enzyme to 2.0 ng/µL with 1x PARP buffer. • Initiate reaction by adding 10 µL of diluted PARP1 enzyme to the wells designated “Positive Control” and “Test Inhibitor”. • To the wells designated as “Blank”, add 10 µL of 1X PARP buffer. • Centrifuge the plate at 1000 rpm for 30 seconds and incubate at room temperature for 60 min. • Discard the reaction mixture after 1 hour, and wash plate three times with 100 µL PBST buffer and tap plate onto clean paper towel as described above.
1) Preparation of Streptavidin-HRP: • Dilute Streptavidin-HRP 1:50 in Blocking buffer. • Add 25 µL of diluted Streptavidin-HRP to each well. Incubate for 30 min. at room temperature. • Wash three times with 100 µL PBST buffer and tap plate onto clean paper towel as above as described above.
2) Preparation of ECL substrate: • Just before use, mix on ice equal amounts of ELISA ECL Substrate A and ELISA ECL Substrate B and add 50 µL per well. • Immediately read the plate in microtiter-plate in Chemiluminescence setting. The “Blank” value is subtracted from all other values.

[1] = UWB 1.289 cells, 10 nM, 24 hours, western blot relative to DMSO
[2] = UWB1289, 24 h, read-out: PAR % inhibition in UWB 1.289 @ 10 nM, UWB 1.289 cells, 10 nM, 24 hours, western blot relative to DMSO
[3] = UWB1289, read-out: PAR % inhibition in UWB 1.289 @ 10 nM, UWB 1.289 cells, 10 nM, 24 hours, western blot relative to DMSO
[4] = read-out: % inhibition 100 nM, PARP enzyme assay, 100 nM compound
[5] = read-out: % inhibition 10 nM, PARP enzyme assay, 10 nM compound

Chain of PARP2 (Q9UGN5 whole entry, species assumed): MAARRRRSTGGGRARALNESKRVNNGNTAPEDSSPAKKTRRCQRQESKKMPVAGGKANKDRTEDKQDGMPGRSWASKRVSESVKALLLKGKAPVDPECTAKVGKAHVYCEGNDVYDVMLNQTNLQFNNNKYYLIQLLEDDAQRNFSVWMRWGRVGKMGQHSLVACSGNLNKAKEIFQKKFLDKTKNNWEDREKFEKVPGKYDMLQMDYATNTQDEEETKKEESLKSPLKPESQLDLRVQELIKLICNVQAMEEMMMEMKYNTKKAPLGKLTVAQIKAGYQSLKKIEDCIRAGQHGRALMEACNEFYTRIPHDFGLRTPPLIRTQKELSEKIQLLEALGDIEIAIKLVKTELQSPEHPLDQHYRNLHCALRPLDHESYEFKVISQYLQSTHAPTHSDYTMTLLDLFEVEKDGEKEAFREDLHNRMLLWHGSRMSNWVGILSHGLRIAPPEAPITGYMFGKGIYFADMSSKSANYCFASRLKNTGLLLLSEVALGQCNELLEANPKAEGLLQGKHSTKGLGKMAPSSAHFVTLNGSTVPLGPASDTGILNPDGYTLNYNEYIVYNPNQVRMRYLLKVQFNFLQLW

Structure (SMILES) | IC50 (PARP2) [nM] | PAR % inhibition in UWB 1.289 @ 10 nM (PAR in UWB 1.289 cells; [1]) | melting point [°C] | pIC50 (PARP1) | further results
CC1(O)C(=O)N(c2cncc(Cc3n[nH]c(=O)c4cc(F)ccc34)c2)c2ccccc21 (single isomer, unassigned; (-)) [Example 8, (-)-7-Fluoro-4-((5-(3-hydroxy-3-methyl-2-oxoindolin-1-yl)pyridin-3-yl)methyl)phthalazin-1(2H)-one] | < 10 | C (C represents >25% to ≤50%) | 138 to 141 |  | 
C[C@]1(O)C(=O)N(c2cncc(Cc3n[nH]c(=O)c4ccccc34)c2)c2ccccc21 [Example 2, (R)-(+)-4-((5-(3-Hydroxy-3-methyl-2-oxoindolin-1-yl)pyridin-3-yl)methyl)phthalazin-1(2H)-one] | < 10 |  |  | > 8.00 | inhibition at 0.01 µM (PAR in UWB 1.289 cells; [2]): 75 to 100%
CC1(O)C(=O)N(c2cncc(Cc3n[nH]c(=O)c4ccccc34)c2)c2ccccc21 (stereo not drawn) [Example 1, 4-((5-(3-Hydroxy-3-methyl-2-oxoindolin-1-yl)pyridin-3-yl)methyl)phthalazin-1(2H)-one] | < 10 |  | 110 to 113 | > 8.00 | inhibition at 0.01 µM (PAR in UWB 1.289 cells; [3]): 50 to 75%; inhibition at 0.01 µM (PARP1; read-out: % inhibition 10 nM): 75 to 100%; inhibition at 0.1 µM (PARP1; read-out: % inhibition 100 nM): 75 to 100%
CC1(O)C(=O)N(c2cc(Cc3n[nH]c(=O)c4cc(F)ccc34)ccn2)c2ccccc21 (stereo not drawn) [Example 21, 7-Fluoro-4-((2-(3-hydroxy-3-methyl-2-oxoindolin-1-yl)pyridin-4-yl)methyl)phthalazin-1(2H)-one] | > 10 |  | 187 to 189 |  | inhibition at 0.01 µM (PAR in UWB 1.289 cells; [3]): 25 to 50%
CC1(O)C(=O)N(c2cncc(Cc3n[nH]c(=O)c4cc(F)ccc34)c2)c2ccc(F)cc21 (single isomer, unassigned; (-)) [Example 12, (-)-7-Fluoro-4-((5-(5-fluoro-3-hydroxy-3-methyl-2-oxoindolin-1-yl)pyridin-3-yl)methyl)phthalazin-1(2H)-one] | < 10 | D (D represents ≤25%) | 154 to 157 |  | % inhibition 10 nM (PARP1): A (A represents >75% to 100%); % inhibition 100 nM (PARP1): A (A represents >75% to 100%); IC50 (PARP1): < 10 nM
CC1(O)C(=O)N(c2cncc(Cc3n[nH]c(=O)c4cc(F)ccc34)c2)c2ccccc21 (single isomer, unassigned; (+)) [Example 7, (+)-7-Fluoro-4-((5-(3-hydroxy-3-methyl-2-oxoindolin-1-yl)pyridin-3-yl)methyl)phthalazin-1(2H)-one] | < 10 | A (A represents >75% to 100%) | 148 to 151 |  | 
CC1(O)C(=O)N(c2cc(Cc3n[nH]c(=O)c4ccccc34)ccn2)c2ccccc21 (stereo not drawn) [Example 18, 4-((2-(3-hydroxy-3-methyl-2-oxoindolin-1-yl)pyridin-4-yl)methyl)phthalazin-1(2H)-one] | < 10 |  | 203 to 205 | > 8.00 | inhibition at 0.01 µM (PARP1; read-out: % inhibition 10 nM): 75 to 100%; inhibition at 0.1 µM (PARP1; read-out: % inhibition 100 nM): 75 to 100%
CC1(O)C(=O)N(c2cc(Cc3n[nH]c(=O)c4ccccc34)ccn2)c2ccccc21 (single isomer, unassigned; (+)) [Example 20, (+)-4-((2-(3-Hydroxy-3-methyl-2-oxoindolin-1-yl)pyridin-4-yl)methyl)phthalazin-1(2H)-one] | < 10 |  | 205 to 208 |  | inhibition at 0.01 µM (PAR in UWB 1.289 cells; [2]): 50 to 75%; % inhibition 10 nM (PARP1): A (A represents >75% to 100%); % inhibition 100 nM (PARP1): A (A represents >75% to 100%); IC50 (PARP1): < 10 nM
CC1(O)C(=O)N(c2cncc(Cc3n[nH]c(=O)c4ccccc34)c2)c2ccc(F)cc21 (single isomer, unassigned; (+)) [Example 14, (+)-4-((5-(5-Fluoro-3-hydroxy-3-methyl-2-oxoindolin-1-yl)pyridin-3-yl)methyl)phthalazin-1(2H)-one] | < 10 | A (A represents >75% to 100%) | 198 to 201 | > 8.00 | % inhibition 10 nM (PARP1; 0.01 µM): B (B represents >50% to ≤75%); inhibition at 0.1 µM (PARP1; [4]): 75 to 100%
CC1(O)C(=O)N(c2cncc(Cc3n[nH]c(=O)c4ccccc34)c2)c2ccc(F)cc21 (single isomer, unassigned; (-)) [Example 15, (-)-4-((5-(5-Fluoro-3-hydroxy-3-methyl-2-oxoindolin-1-yl)pyridin-3-yl)methyl)phthalazin-1(2H)-one] | < 10 | D (D represents ≤25%) | 197 to 200 |  | % inhibition 10 nM (PARP1; 0.01 µM): A (A represents >75% to 100%); % inhibition 100 nM (PARP1): A (A represents >75% to 100%); IC50 (PARP1): < 10 nM
CC1(O)C(=O)N(c2cc(Cc3n[nH]c(=O)c4cc(F)ccc34)ccn2)c2ccccc21 (single isomer, unassigned; (-)) [Example 22, (-)-7-Fluoro-4-((2-(3-hydroxy-3-methyl-2-oxoindolin-1-yl)pyridin-4-yl)methyl)phthalazin-1(2H)-one] | < 10 |  | 165 to 168 |  | inhibition at 0.01 µM (PAR in UWB 1.289 cells; [2]): 25 to 50%
O=C1N(c2cncc(Cc3n[nH]c(=O)c4ccccc34)c2)c2ccccc2C1(O)C(F)(F)F (stereo not drawn) [Example 25, 4-((5-(3-Hydroxy-2-oxo-3-(trifluoromethyl)indolin-1-yl)pyridin-3-yl)methyl)phthalazin-1(2H)-one] | < 10 |  | 258 to 260 | > 8.00 | inhibition at 0.01 µM (PAR in UWB 1.289 cells; [3]): 25 to 50%; inhibition at 0.01 µM (PARP1; read-out: % inhibition 10 nM): 75 to 100%; inhibition at 0.1 µM (PARP1; read-out: % inhibition 100 nM): 75 to 100%
CC1(O)C(=O)N(c2cc(Cc3n[nH]c(=O)c4cc(F)ccc34)ccn2)c2ccc(F)cc21 (stereo not drawn) [Example 24, 7-Fluoro-4-((2-(5-fluoro-3-hydroxy-3-methyl-2-oxoindolin-1-yl)pyridin-4-yl)methyl)phthalazin-1(2H)-one] | < 10 |  | 225 to 228 | > 8.00 | inhibition at 0.01 µM (PAR in UWB 1.289 cells; [3]): 25 to 50%
C[C@@]1(O)C(=O)N(c2cncc(Cc3n[nH]c(=O)c4ccccc34)c2)c2ccccc21 [Example 3, (S)-(-)-4-((5-(3-Hydroxy-3-methyl-2-oxoindolin-1-yl)pyridin-3-yl)methyl)phthalazin-1(2H)-one] | < 10 |  | 94 to 97 | > 8.00 | inhibition at 0.01 µM (PAR in UWB 1.289 cells; [2]): < 25%
CC1(O)C(=O)N(c2cncc(Cc3n[nH]c(=O)c4cc(F)ccc34)c2)c2ccc(F)cc21 (single isomer, unassigned; (+)) [Example 11, (+)-7-Fluoro-4-((5-(5-fluoro-3-hydroxy-3-methyl-2-oxoindolin-1-yl)pyridin-3-yl)methyl)phthalazin-1(2H)-one] | < 10 | A (A represents >75% to 100%) | 148 to 151 | > 8.00 | inhibition at 0.01 µM (PARP1; [5]): 75 to 100%; inhibition at 0.1 µM (PARP1; [4]): 75 to 100%
CC1(O)C(=O)N(c2cc(Cc3n[nH]c(=O)c4cc(F)ccc34)ccn2)c2ccccc21 (single isomer, unassigned; (+)) [Example 23, (+)-7-Fluoro-4-((2-(3-hydroxy-3-methyl-2-oxoindolin-1-yl)pyridin-4-yl)methyl)phthalazin-1(2H)-one] | < 10 | D (D represents ≤25%) | 167 to 170 |  | 
CC1(O)C(=O)N(c2cc(Cc3n[nH]c(=O)c4ccccc34)ccn2)c2ccccc21 (single isomer, unassigned; (-)) [Example 19, (-)-4-((2-(3-Hydroxy-3-methyl-2-oxoindolin-1-yl)pyridin-4-yl)methyl)phthalazin-1(2H)-one] | < 10 |  | 207 to 210 | > 8.00 | inhibition at 0.01 µM (PARP1; [5]): 75 to 100%; inhibition at 0.1 µM (PARP1; [4]): 75 to 100%
